Literature values as cited in US20090053307A1, “IMMEDIATE-RELEASE T[…] FOR IMPROVED ORAL ABSORPTION OF 7-[(E)]-T-BUTY-LOXYMINOMETHYL] CAMPTOTHECIN” (SIGMA-TAU INDUSTRIE FAR[…] S.P.A., priority 2005, published 2009).

Test system: large cell pulmonary carcinoma (not SCLC, H-460)
Details: H-460 tumour line; from W097/31003

CCC1(O)C(=O)OCc2c1cc1n(c2=O)Cc2c-1nc1ccccc1c2C#N (stereo not shown) [CPT 83]
activity compared with reference compound topotecan: more active than topotecan
